Data as given in patent publication US20220187282A1, “CARDIOMYOCYTE PROLIFERATION” (The Council of the Queensland Institute of Medical Research, priority 2019, published 2022).
Read-outs that look alike come from different tables or passages of the source.

Tests used:
Type in all cases: biochemical
kinases [1] = biological target: kinases (Homo sapiens, UniProt O00506); conditions: STK25 (YSK1) FRET-Z-Lyte SP; Test Conc(μM):ATP Conc(μM) 1:75
kinases [2] = biological target: kinases (Homo sapiens, UniProt O60285); conditions: NUAK1 (ARK5) FRET-Adapta SP; Test Conc(μM):ATP Conc(μM) 1:25
kinases [3] = biological target: kinases (Homo sapiens, UniProt O75116); conditions: ROCK2 FRET-Z-Lyte SP; Test Conc(μM):ATP Conc(μM) 1:50
kinases [4] = biological target: kinases (Homo sapiens, UniProt P09619); conditions: PDGFRB *Mn* FRET-Z-Lyte SP; Test Conc(μM):ATP Conc(μM) 1:100
kinases [5] = biological target: kinases (Homo sapiens, UniProt P09769); conditions: FGR FRET-Z-Lyte SP; Test Conc(μM):ATP Conc(μM) 1:10
kinases [6] = biological target: kinases (Homo sapiens, UniProt P10721); conditions: KIT *Mn* FRET-Z-Lyte SP
kinases [7] = biological target: kinases (Homo sapiens, UniProt P25098); conditions: ADRBK1 (GRK2) FRET-Z-Lyte SP; Test Conc(μM):ATP Conc(μM) 1:10
kinases [8] = biological target: kinases (Homo sapiens, UniProt P35626); conditions: ADRBK2 (GRK3) FRET-Z-Lyte SP; Test Conc(μM):ATP Conc(μM) 1:10
kinases [9] = biological target: kinases (Homo sapiens, UniProt P35916); conditions: FLT4 (VEGFR3) *Mn* Z-Lyte SP; Test Conc(μM):ATP Conc(μM) 1:5
kinases [10] = biological target: kinases (Homo sapiens, UniProt P36888); conditions: FLT3 Hu Phos FRET-Z-Lyte SP; Test Conc(μM):ATP Conc(μM) 1:500
kinases [11] = biological target: kinases (Homo sapiens, UniProt P42336)
Chain of kinases (Homo sapiens, UniProt P42336) (P42336 whole entry): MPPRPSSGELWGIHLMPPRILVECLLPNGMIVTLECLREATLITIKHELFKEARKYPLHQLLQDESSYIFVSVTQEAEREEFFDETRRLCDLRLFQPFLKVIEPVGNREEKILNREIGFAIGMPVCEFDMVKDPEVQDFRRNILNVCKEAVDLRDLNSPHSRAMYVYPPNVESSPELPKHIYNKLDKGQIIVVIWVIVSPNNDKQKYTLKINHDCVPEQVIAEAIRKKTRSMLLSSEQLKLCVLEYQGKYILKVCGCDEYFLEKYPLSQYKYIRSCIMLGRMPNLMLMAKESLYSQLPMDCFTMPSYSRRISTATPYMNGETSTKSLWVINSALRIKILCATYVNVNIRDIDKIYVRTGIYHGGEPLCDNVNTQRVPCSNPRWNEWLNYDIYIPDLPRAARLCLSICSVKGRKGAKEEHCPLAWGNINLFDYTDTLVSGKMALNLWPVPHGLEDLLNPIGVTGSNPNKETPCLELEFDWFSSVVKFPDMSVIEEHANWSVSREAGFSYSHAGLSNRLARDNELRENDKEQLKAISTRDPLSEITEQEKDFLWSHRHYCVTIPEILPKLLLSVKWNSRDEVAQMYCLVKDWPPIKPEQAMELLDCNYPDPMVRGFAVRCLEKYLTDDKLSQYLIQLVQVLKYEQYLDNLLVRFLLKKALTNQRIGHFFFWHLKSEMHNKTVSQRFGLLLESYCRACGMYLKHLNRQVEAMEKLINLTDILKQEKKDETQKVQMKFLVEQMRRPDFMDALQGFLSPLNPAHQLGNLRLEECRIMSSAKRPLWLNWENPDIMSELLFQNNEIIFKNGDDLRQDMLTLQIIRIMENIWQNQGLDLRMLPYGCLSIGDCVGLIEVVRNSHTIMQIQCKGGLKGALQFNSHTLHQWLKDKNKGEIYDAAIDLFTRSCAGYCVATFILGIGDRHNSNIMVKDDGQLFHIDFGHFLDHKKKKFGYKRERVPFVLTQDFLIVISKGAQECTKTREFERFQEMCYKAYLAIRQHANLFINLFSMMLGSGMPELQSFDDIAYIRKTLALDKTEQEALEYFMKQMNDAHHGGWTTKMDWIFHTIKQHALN

kinases [12] = biological target: kinases (Homo sapiens, UniProt P42338)
Chain of kinases (Homo sapiens, UniProt P42338) (P42338 whole entry): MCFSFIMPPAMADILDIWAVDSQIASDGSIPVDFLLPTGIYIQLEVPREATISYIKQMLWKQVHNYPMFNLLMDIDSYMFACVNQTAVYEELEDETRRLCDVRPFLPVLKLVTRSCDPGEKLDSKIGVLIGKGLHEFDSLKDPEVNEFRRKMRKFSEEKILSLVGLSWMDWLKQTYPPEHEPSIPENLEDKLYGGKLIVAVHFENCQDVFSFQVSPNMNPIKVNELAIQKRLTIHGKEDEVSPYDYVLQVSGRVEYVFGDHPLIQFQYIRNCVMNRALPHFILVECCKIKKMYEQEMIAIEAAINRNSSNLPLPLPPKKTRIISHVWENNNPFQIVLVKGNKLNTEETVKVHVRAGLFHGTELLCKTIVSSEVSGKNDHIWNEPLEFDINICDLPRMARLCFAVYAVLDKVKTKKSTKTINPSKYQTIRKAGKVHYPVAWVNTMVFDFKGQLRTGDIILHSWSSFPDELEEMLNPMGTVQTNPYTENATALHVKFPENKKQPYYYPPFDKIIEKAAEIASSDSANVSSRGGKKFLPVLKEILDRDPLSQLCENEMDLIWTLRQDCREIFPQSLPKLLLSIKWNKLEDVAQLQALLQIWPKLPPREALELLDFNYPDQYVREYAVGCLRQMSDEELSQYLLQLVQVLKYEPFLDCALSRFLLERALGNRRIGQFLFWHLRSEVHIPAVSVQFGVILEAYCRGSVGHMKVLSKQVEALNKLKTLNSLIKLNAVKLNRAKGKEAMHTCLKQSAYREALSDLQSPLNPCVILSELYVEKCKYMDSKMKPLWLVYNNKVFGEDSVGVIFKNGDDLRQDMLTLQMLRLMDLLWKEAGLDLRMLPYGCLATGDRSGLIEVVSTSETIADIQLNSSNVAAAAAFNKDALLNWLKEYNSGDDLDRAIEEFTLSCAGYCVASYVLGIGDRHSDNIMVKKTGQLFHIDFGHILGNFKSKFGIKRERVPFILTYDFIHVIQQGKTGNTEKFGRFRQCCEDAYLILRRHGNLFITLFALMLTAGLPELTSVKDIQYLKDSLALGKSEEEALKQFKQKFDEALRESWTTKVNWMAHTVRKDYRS

kinases [13] = biological target: kinases (Homo sapiens, UniProt P49759); conditions: CLK1 FRET-Z-Lyte SP; Test Conc(μM):ATP Conc(μM) 1:25
kinases [14] = biological target: kinases (Homo sapiens, UniProt P51451); conditions: BLK FRET-Z-Lyte SP; Test Conc(μM):ATP Conc(μM) 1:25
kinases [15] = biological target: kinases (Homo sapiens, UniProt P57058); conditions: HUNK FRET-Lantha SP; Test Conc(μM) 1
kinases [16] = biological target: kinases (Homo sapiens, UniProt Q00526); conditions: CDK3/cyclin E1 FRET-Lantha SP; Test Conc(μM) 1
kinases [17] = biological target: kinases (Homo sapiens, UniProt Q04759); conditions: PRKCQ (PKC theta) Z-Lyte SP; Test Conc(μM):ATP Conc(μM) 1:100
kinases [18] = biological target: kinases (Homo sapiens, UniProt Q05655); conditions: PRKCD (PKC delta) Z-Lyte SP; Test Conc(μM):ATP Conc(μM) 1:25
kinases [19] = biological target: kinases (Homo sapiens, UniProt Q52WX2); conditions: SBK1 FRET-Z-Lyte SP; Test Conc(μM):ATP Conc(μM) 1:5
Chain of kinases (Homo sapiens, UniProt Q52WX2) (Q52WX2 whole entry): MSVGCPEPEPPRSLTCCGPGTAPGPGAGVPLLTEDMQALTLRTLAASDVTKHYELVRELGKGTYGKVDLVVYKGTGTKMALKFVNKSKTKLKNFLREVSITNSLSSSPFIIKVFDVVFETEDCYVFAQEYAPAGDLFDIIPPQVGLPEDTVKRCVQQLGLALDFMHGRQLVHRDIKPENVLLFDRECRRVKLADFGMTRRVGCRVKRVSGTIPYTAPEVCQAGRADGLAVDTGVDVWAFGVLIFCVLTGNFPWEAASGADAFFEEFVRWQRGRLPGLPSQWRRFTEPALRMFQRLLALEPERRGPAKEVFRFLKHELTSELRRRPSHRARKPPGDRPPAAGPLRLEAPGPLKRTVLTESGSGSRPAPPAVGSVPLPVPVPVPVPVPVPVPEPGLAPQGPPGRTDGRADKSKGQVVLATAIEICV

kinases [20] = biological target: kinases (Homo sapiens, UniProt Q5S007)
Chain of kinases (Homo sapiens, UniProt Q5S007) (Q5S007 whole entry): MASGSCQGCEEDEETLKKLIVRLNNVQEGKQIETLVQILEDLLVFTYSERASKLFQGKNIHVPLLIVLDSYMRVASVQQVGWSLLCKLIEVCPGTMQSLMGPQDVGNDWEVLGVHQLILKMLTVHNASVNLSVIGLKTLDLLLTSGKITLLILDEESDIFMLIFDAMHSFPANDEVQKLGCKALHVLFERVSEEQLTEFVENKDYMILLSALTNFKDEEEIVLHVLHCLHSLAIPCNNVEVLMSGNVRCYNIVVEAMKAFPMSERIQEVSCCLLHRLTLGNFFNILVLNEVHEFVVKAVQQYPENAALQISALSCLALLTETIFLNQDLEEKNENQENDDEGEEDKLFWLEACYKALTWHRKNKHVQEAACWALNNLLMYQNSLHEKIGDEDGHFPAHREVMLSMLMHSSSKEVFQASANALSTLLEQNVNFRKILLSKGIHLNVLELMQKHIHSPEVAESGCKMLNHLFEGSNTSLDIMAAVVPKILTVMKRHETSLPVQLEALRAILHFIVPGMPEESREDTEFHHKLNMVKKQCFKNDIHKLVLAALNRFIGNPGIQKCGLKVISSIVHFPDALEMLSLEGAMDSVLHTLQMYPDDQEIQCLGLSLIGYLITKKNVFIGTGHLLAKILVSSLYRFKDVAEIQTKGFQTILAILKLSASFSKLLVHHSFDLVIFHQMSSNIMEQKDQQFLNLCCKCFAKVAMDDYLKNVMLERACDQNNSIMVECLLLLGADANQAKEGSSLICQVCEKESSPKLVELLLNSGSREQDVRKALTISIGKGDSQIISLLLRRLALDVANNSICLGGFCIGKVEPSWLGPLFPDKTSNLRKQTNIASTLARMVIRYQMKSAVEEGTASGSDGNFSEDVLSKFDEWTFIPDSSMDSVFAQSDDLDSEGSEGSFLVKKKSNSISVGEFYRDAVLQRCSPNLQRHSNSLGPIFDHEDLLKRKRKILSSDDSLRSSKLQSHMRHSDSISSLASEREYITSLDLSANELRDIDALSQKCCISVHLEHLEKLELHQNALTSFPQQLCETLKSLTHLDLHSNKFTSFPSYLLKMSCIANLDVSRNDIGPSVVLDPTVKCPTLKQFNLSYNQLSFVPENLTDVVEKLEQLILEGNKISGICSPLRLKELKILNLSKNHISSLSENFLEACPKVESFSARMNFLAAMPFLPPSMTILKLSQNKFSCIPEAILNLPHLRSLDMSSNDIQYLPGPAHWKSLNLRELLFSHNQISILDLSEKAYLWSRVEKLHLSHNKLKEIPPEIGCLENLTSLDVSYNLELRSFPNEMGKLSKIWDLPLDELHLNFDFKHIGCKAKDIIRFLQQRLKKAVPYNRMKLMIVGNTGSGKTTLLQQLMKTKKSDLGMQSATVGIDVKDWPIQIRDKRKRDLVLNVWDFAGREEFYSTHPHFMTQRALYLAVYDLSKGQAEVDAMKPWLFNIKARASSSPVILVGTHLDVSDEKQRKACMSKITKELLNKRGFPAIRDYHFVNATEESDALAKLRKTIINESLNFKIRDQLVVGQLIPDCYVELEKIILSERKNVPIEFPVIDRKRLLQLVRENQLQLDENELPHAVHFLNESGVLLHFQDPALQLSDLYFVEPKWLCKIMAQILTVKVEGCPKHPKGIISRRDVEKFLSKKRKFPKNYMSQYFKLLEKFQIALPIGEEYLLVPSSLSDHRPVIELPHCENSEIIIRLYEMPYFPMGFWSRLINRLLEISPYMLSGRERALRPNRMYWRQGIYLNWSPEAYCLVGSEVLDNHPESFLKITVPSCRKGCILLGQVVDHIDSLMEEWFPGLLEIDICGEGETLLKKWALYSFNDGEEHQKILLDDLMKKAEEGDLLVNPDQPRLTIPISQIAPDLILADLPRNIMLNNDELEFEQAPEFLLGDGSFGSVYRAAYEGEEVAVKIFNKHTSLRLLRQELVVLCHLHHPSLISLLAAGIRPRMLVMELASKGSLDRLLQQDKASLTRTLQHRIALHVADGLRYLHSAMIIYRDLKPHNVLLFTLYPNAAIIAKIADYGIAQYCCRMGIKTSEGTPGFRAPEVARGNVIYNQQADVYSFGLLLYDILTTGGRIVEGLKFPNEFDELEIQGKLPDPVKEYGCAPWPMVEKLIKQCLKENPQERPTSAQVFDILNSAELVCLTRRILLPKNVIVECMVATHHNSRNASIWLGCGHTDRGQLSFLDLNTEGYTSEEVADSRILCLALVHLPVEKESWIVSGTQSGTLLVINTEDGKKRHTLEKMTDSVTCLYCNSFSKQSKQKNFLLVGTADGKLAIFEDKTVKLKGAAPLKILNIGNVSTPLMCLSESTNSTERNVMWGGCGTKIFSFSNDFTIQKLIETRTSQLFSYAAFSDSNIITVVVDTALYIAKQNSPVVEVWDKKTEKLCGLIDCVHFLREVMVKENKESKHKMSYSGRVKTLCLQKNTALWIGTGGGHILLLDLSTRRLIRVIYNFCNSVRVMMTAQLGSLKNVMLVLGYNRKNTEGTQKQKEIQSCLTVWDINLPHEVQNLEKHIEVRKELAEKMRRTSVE

kinases [21] = biological target: kinases (Homo sapiens, UniProt Q6PHR2); conditions: ULK3 FRET-Lantha SP; Test Conc(μM) 1
kinases [22] = biological target: kinases (Homo sapiens, UniProt Q7KZI7); conditions: MARK2 FRET-Z-Lyte SP; Test Conc(μM):ATP Conc(μM) 1:10
kinases [23] = biological target: kinases (Homo sapiens, UniProt Q86SG6); conditions: NEK8 FRET-Lantha SP; Test Conc(μM) 1
kinases [24] = biological target: kinases (Homo sapiens, UniProt Q86Y07); conditions: VRK2 FRET-Lantha SP; Test Conc(μM) 1
kinases [25] = biological target: kinases (Homo sapiens, UniProt Q8IYT8); conditions: ULK2 FRET-Lantha SP; Test Conc(μM) 1
kinases [26] = biological target: kinases (Homo sapiens, UniProt Q96PY6); conditions: NEK1 FRET-Z-Lyte SP; ATP Conc(μM):Test Conc(μM) 1:100
kinases [27] = biological target: kinases (Homo sapiens, UniProt Q9UKI8); conditions: TLK1 FRET-Lantha SP; Test Conc(μM) 1
kinases [28] = biological target: kinases (Homo sapiens, UniProt Q9Y4K4); conditions: MAP4K5 (KHS1) FRET-Z-Lyte SP; Test Conc(μM):ATP Conc(μM) 1:50
[29] = PIK3CA/PIK3R1 FRET-Adapta SP, Test Conc(μM):ATP Conc(μM) 1:25
[30] = PIK3CA/PIK3R3 FRET-Adapta SP, Test Conc(μM):ATP Conc(μM) 1:10
[31] = PIK3CB FRET-Adapta SP, Test Conc(μM):ATP Conc(μM) 1:150
[32] = PIK3CB/PIK3R2 FRET-Adapta SP, Test Conc(μM):ATP Conc(μM) 1:10
[33] = LRRK2 FL FRET-Adapta SP, Test Conc(μM):ATP Conc(μM) 1:50
[34] = LRRK2 Hu Phos FRET-Adapta SP, Test Conc(μM):ATP Conc(μM) 1:75

Cc1ccc(NC(=O)c2ccnc(N3CCOCC3)c2)cc1Nc1ccnc(N2CC(C)OC(C)C2)n1 (centres unmarked) [compound 3]
Mean Inhib (%) (kinases [1]): 8.8%
Mean Inhib (%) (kinases [2]): −5.6%
Mean Inhib (%) (kinases [3]): −2.1%
Mean Inhib (%) (kinases [4]): 15.5%
Mean Inhib (%) (kinases [5]): 9.4%
Mean Inhib (%) (kinases [6]; Test Conc(μM):ATP Conc(μM) 1:300): 0.0%
Mean Inhib (%) (kinases [7]): 8.4%
Mean Inhib (%) (kinases [8]): 0.7%
Mean Inhib (%) (kinases [9]): 2.8%
Mean Inhib (%) (kinases [10]): −9.3%
Mean Inhib (%) (kinases [11]; [29]): 8.4%
Mean Inhib (%) (kinases [11]; [30]): −3.0%
Mean Inhib (%) (kinases [12]; [31]): −5.2%
Mean Inhib (%) (kinases [12]; [32]): 8.0%
Mean Inhib (%) (kinases [13]): 5.3%
Mean Inhib (%) (kinases [14]): 3.0%
Mean Inhib (%) (kinases [15]): 5.7%
Mean Inhib (%) (kinases [16]): 6.0%
Mean Inhib (%) (kinases [17]): 15.6%
Mean Inhib (%) (kinases [18]): 15.1%
Mean Inhib (%) (kinases [19]): 3.3%
Mean Inhib (%) (kinases [20]; [33]): 0.5%
Mean Inhib (%) (kinases [20]; [34]): 13.2%
Mean Inhib (%) (kinases [21]): −2.1%
Mean Inhib (%) (kinases [22]): 7.4%
Mean Inhib (%) (kinases [23]): −9.5%
Mean Inhib (%) (kinases [24]): −5.7%
Mean Inhib (%) (kinases [25]): 2.6%
Mean Inhib (%) (kinases [26]): 7.0%
Mean Inhib (%) (kinases [27]): −4.3%
Mean Inhib (%) (kinases [28]): −7.8%

Cc1cc(Oc2ccnc(Nc3ccc(S(N)(=O)=O)cc3)c2)c(-c2ccccn2)nc1C [compound 65]
Mean Inhib (%) (kinases [1]): 2.0%
Mean Inhib (%) (kinases [2]): −3.5%
Mean Inhib (%) (kinases [3]): 1.6%
Mean Inhib (%) (kinases [4]): 3.9%
Mean Inhib (%) (kinases [5]): 67.3%
Mean Inhib (%) (kinases [6]; Test Conc(μM):ATP Conc(μM) 0.25): 8.8%
Mean Inhib (%) (kinases [7]): 1.0%
Mean Inhib (%) (kinases [8]): −2.5%
Mean Inhib (%) (kinases [9]): 2.0%
Mean Inhib (%) (kinases [10]): 8.9%
Mean Inhib (%) (kinases [11]; [29]): 0.0%
Mean Inhib (%) (kinases [11]; [30]): 3.9%
Mean Inhib (%) (kinases [12]; [31]): −2.3%
Mean Inhib (%) (kinases [12]; [32]): −4.7%
Mean Inhib (%) (kinases [13]): 5.8%
Mean Inhib (%) (kinases [14]): 9.7%
Mean Inhib (%) (kinases [15]): 11.5%
Mean Inhib (%) (kinases [16]): 9.6%
Mean Inhib (%) (kinases [17]): 5.9%
Mean Inhib (%) (kinases [18]): 1.0%
Mean Inhib (%) (kinases [19]): −6.2%
Mean Inhib (%) (kinases [20]; [33]): 3.0%
Mean Inhib (%) (kinases [20]; [34]): 6.1%
Mean Inhib (%) (kinases [21]): −2.4%
Mean Inhib (%) (kinases [22]): 3.8%
Mean Inhib (%) (kinases [23]): −7.5%
Mean Inhib (%) (kinases [24]): −16.6%
Mean Inhib (%) (kinases [25]): −1.0%
Mean Inhib (%) (kinases [26]): 0.2%
Mean Inhib (%) (kinases [27]): −4.5%
Mean Inhib (%) (kinases [28]): 38.0%
